Laboratory results: article PMC5906549, “Cathelicidin-Derived Antimicrobial Peptides Inhibit Zika Virus Through Direct Inactivation and Interferon Pathway” (Frontiers in Immunology, 2018)
Peptide text beside a SMILES is read from it.

Assays:
[1] = in vitro; conditions: African green monkey
Protocol: (§1) Cell viability was examined by the CellTiter 96 ®Aqueous One Solution Cell Proliferation Assay (Promega, Madison, WI, USA). Vero cells and astrocytes were seeded into 96-well tissue culture plates (Fisher Scientific) and treated with fresh growth medium containing different concentrations of each peptide for 2 or 4 days at 37°C. At the experimental end point, MTS [3-(4,5-dimethylthiazol-2-yl)-5-(3-carboxymethoxyphenyl)-2-(4-sulfophenyl)-2H-tetrazolium] was added to the cultures and incubated for 1 h. The absorbance at 490 nm was recorded through BioTek Gen5 data analysis software (Winooski), VT, optical density (OD) values were used as a representation of cell viability.
(§2) (A) Vero cells were treated with doses of peptides ranging from 1 to 50 µM. After 24 h, the cultures were washed and treated with same doses of peptides in fresh medium for another 24 h. Cell viability was determined by a colorimetric MTS assay. Results shown are the averages ±SD of experiments performed in triplicate. Data were analyzed by non-linear regression. The EC50 was assessed for each of the antimicrobial peptides. (B) Vero cells were treated with doses of peptides ranging from 0.4 to 10 µM for 2 h then infected with ZIKV at the MOI of 0.5. After 24 h, the cultures were washed and treated with same doses of peptides in fresh medium for another 24 h. ZIKA RNA was detected in total cellular RNA through real-time RT-PCR. Data were normalized to GAPDH and presented as fold change (in log scale) compared with ZIKV group. ** p < 0.01 and *** p < 0.001, as compared with the ZIKV group without the peptide treatment (ANOVA, N = 3).
(§3) A, B) Vero cells were treated with 10 µM AMPs for 2 days or 4 days as outlined in the figure. For 4-day treatment, Vero cells were repeatedly treated with 10 µM AMPs at 2-day post-treatment. At the experimental end point, cell viability was determined by a colorimetric MTS assay CellTiter 96® AQueous One Solution Assay (Promega, Madison, WI) based on the manufacture’s instruction. Results were normalized as percentage of cell viability in control astrocytes. CTL, control. * denotes p < 0.05, ** denotes p < 0.01, *** denotes p < 0.001 as compared to the control group without peptide treatment (ANOVA, N = 3).

[2] = system: Vero cells; test: in vitro
Protocol: as §1, §2, §3

[3] = system: ZIKV strain MR766; test: Viral attachment assay at 4°C in human fetal astrocytes; format: cell-based, Zika virus; conditions: astrocytes pre-incubated at 4°C half an hour, peptide along with ZIKV MOI 0.5 for 2 h at 4°C; normalized to 18-s rRNA; N = 3
Protocol: Viral attachment assay was adapted from a previous publication ([36]) with modifications. Briefly, primary human fetal astrocytes were pre-incubated at 4°C for half an hour and then treated with AMPs along with ZIKV infection at the MOI of 0.5. After infection at 4°C for 2 h, cultures were washed with fresh medium for three times and RNA was isolated from whole cells. ZIKV RNA was determined through real-time RT-PCR. Data were normalized to 18-s rRNA and presented as fold change compared with the ZIKV group. One experimental group was subjected to trypsin digestion to remove any attached virions. This group served as a positive control for the viral attachment experiment.
(A) Primary human fetal astrocytes were pre-incubated at 4°C for half an hour and then treated with antimicrobial peptides along with ZIKV infection at the MOI of 0.5 for 2 h. Cultures were then washed with fresh medium for three times. […] Data were normalized to 18-s rRNA and presented as fold change compared with the ZIKV group. The trypsin digestion group readily removes any attached virions and thus serves as positive control. […] After infection for 2 h, cultures were washed with fresh medium for three times and RNA was isolated from whole cells. ZIKV RNA was determined through real-time RT-PCR.

Compound | EC50 at 48 h [1] [µM] | Cytotoxicity to Vero cells at 10 µM [2] | ZIKV RNA levels in astrocytes at 4°C (viral attachment) [3]
CC[C@H](C)[C@H](NC(=O)[C@H](CCCNC(=N)N)NC(=O)[C@H](CCC(N)=O)NC(=O)[C@@H](NC(=O)[C@@H](NC(=O)[C@H](CCCNC(=N)N)NC(=O)[C@H](CCCCN)NC(=O)[C@H](Cc1ccccc1)NC(=O)CN)[C@@H](C)CC)C(C)C)C(=O)N[C@@H](CCCCN)C(=O)N[C@@H](CC(=O)O)C(=O)N[C@@H](Cc1ccccc1)C(=O)N[C@@H](CC(C)C)C(=O)N[C@@H](CCCNC(=N)N)C(=O)N[C@@H](CC(N)=O)C(=O)N[C@@H](CC(C)C)C(=O)N[C@H](C(N)=O)C(C)C [GF-17] (H-GFKRIVQRIKDFLRNLV-NH2; N-terminus and C-terminus assumed) | > 50 | minimal cytotoxicity | did not alter the ZIKV RNA levels
CC[C@H](C)[C@H](NC(=O)[C@H](CCCCN)NC(=O)[C@H](CCCCN)NC(=O)[C@H](Cc1ccccc1)NC(=O)[C@H](CC(C)C)NC(=O)[C@H](CCCCN)NC(=O)[C@H](CCCCN)NC(=O)[C@H](Cc1ccccc1)NC(=O)[C@H](CCCCN)NC(=O)[C@H](CCCCN)NC(=O)[C@H](CCCNC(=N)N)NC(=O)[C@H](Cc1ccccc1)NC(=O)[C@H](CCCNC(=N)N)NC(=O)[C@H](CCCCN)NC(=O)[C@H](Cc1ccccc1)NC(=O)[C@H](CCCNC(=N)N)NC(=O)CN)C(=O)N[C@@H](CO)C(=O)O [BMAP-18] (H-GRFKRFRKKFKKLFKKIS-OH; N-terminus and C-terminus assumed) | > 50 | minimal cytotoxicity | did not alter the ZIKV RNA levels
CC[C@H](C)[C@H](NC(=O)[C@H](CCCNC(=N)N)NC(=O)[C@H](CCC(N)=O)NC(=O)[C@@H](NC(=O)[C@@H](NC(=O)[C@@H](N)CCCNC(=N)N)[C@@H](C)CC)C(C)C)C(=O)N[C@@H](CCCCN)C(=O)N[C@@H](CC(=O)O)C(=O)N[C@@H](Cc1ccccc1)C(=O)N[C@@H](CC(C)C)C(=O)O [RI-10, reference compound] (H-RIVQRIKDFL-OH; N-terminus and C-terminus assumed) | > 50 | minimal cytotoxicity | did not alter the ZIKV RNA levels
